The values that follow come from patent publication US11202795B2, “Means and methods for treatment of early-onset Parkinson's disease” (VIB VZW, priority 2014, dated 2021).

The subject of one test is PINK1 mutant flies. Put plainly: Flight assay of PINK1 mutant flies fed with FAS inhibitor. The class given is in vivo, Drosophila melanogaster. As for the experimental part: FASN is a 273 kDa protein that produces palmitate, which is a precursor of fatty acids in a seven-step enzymatic reaction. FASN uses malonyl CoA and acetyl CoA as substrates. Several inhibitors of FASN function exist. Tests were performed to determine whether defective flight in PINK1 mutants could be pharmacologically rescued.
One-day-old adult flies were placed on molasses medium supplemented with 100 μM Cerulenin (Enzo Life Sciences) or 3 μM Irgasan (Sigma) (2.5% final ethanol concentration) or supplemented with 2.5% ethanol for control medium. […] To determine mitochondrial morphology, embryos were placed on molasses medium supplemented with 100 μM Cerulenin (2.5% final ethanol concentration) or supplemented with 2.5% ethanol for control medium and grown to the third instar larval stage. These third instar larvae were dissected and used for experiments (see below).
The flight assay was conducted on male flies using batches of five flies each. The flies were placed in an empty vial and gently tapped.

A further test concerns PINK1−/− MEFs. Put plainly: ATP levels of PINK1−/− MEFs treated with FASN inhibitor. Particulars: 10 μM Cerulenin vs untreated cells. The class given is cell-based, mice. On the procedure: To directly test if further lowering FASN activity in PINK mutant cells rescues the mitochondrial dysfunction in these cells, ATP levels were tested.
(§1) Cells were treated with 10 μM Cerulenin (0.1% ethanol) or control medium supplemented with 0.1% ethanol.
(§2) ATP levels were determined as previously described (Morais et al. (2014) Science 344:203-207) using an ATP determination kit (Invitrogen) according to supplier's protocol. Luminescence was measured on a luminometer (Biorad) and values were normalized to total protein content (Bradford method).

Test [1] concerns fibroblasts from patients carrying mutations in PINK1 (L1703). In words: ATP levels of fibroblasts from patients carrying PINK1 mutations. The class given is cell-based, human. To be noted: patient fibroblasts with PINK1 mutations (L1703), 10 μM Cerulenin vs untreated cells. On the procedure: To directly test if further lowering FASN activity in PINK mutant cells rescues the mitochondrial dysfunction in these cells, ATP levels were tested. […] Thus, the inhibition of FASN with an inhibitor rescues in flies and cells isolated from mice and patients the PINK1-induced mitochondrial defects.
as §1, §2

The subject of test [2] is control cells (PINK1+/+ MEF and L2134 controls). Put plainly: ATP levels of control cells treated with FASN inhibitor. The class given is cell-based. On the procedure: Cells were treated with 10 μM Cerulenin (0.1% ethanol) or control medium supplemented with 0.1% ethanol. ATP levels were determined as previously described (Morais et al. (2014) Science 344:203-207) using an ATP determination kit (Invitrogen) according to supplier's protocol. Luminescence was measured on a luminometer (Biorad) and values were normalized to total protein content (Bradford method).

The subject of another test is PINK−/− MEFs. Put plainly: Shotgun lipidomics of mitochondrial fractions (cardiolipin levels). The class given is cell-based, mice. To be noted: compared to control MEFs.
From the text: Nonetheless, when FASN activity was lowered further in PINK1^−/− mutants, either by genetic or by pharmacological inhibition, the palmitate levels drop further. […] Only unsaturated phosphatidylglycerol (PG) is a good substrate for CL synthase (Bobyleva et al. (1997) Biochem. Mol. Biol. Int. 41:469-480) and high levels of palmitate shift the balance toward more saturated PG (Ostrander et al. (2001) J. Biol. Chem. 276:38061-38067). Opposite to this, it was confirmed that inhibition of FASN results in more unsaturated PG, while wondering if FASN inhibition results in increased CL levels.
as §1
Mitochondria were isolated and resuspended in ammonium bicarbonate buffer. Lipids were extracted and analyzed using shotgun mass spectrometry (lipotype). In short, using Chloroform and Methanol, lipids were extracted via a two-step lipid extraction process. These extracted lipids were then immediately subjected to mass spectrometric analysis. Lipid data were acquired on a hybrid quadrupole/ORBITRAP® mass spectrometer (Q-Exactive, Thermo-Fisher) equipped with an automated nanoflow electrospray ion source (TRIVERSA NANOMATE® Advion) in both positive and negative ion mode. LIPOTYPE® XPLORER® was used to identify lipids on unprocessed mass spectra.

Entries after “also recorded” stand apart in the source; their conditions may differ.

For the molecule `Oc1cc(Cl)ccc1Oc1ccc(Cl)cc1Cl` [irgasan], the flight ability entry in the test on PINK1 mutant flies (PINK1 mutant flies (B9), concentrations between 1-10 μM irgasan in food) is on record as “clearly enhance the flight ability”.
For the molecule `C/C=C/C/C=C/CCC(=O)[C@H]1O[C@H]1C(N)=O` [cerulenin], the flight ability entry with PINK1 mutant flies (PINK1 mutant flies on food with different concentrations of cerulenin, flight assay every 24 hours) is recorded as “increased flight ability; also recorded: a dose-response effect was observed”. In addition, the ATP levels entry in the test with PINK1−/− MEFs was “elevated ATP levels compared to untreated cells; also recorded: increased levels of ATP”; in test [1], “elevated ATP levels compared to untreated cells; also recorded: increased levels of ATP”; in test [2], “did not have an effect”. Further, the “cardiolipin (CL) levels” value with PINK−/− MEFs is listed as “almost completely restored the levels of all the CL species that were assessed back to control levels”.
